Values after ≈ are worked out from the molar mass of the structure shown. Where two headings read alike, the source gives them in different places.

The values below come from patent publication US20070049564A1 (Wyeth, priority 2005, published 2007).

The test system of one experiment is Staph. aureus Smith. As to the kind of experiment: In vivo activity (oral, iv; ED50) against Staph. aureus Smith in mice.
In a further experiment the test system is E. coli. As to the kind of experiment: Range of MIC for E. coli strains. The settings on record: Escherichia coli.
For another experiment, the system named is Staph. As to the kind of experiment: Range of MIC for Staph. strains, including MRSA. The settings on record: Staphylococcus aureus, MRSA.
The mark [1] stands for this setting: Staphylococcus aureus, in Mus musculus, po, read-out: ED50 Staph Smith SOD.
Setting [2] is: iv, read-out: ED50 Staph Smith SIV.
The mark [3] stands for this setting: 20 h, read-out: Range of MIC, E. coli (Mouse Serum).
The mark [4] stands for this setting: read-out: Minimum inhibitory concentration (MIC), E. coli (mouse serum).
Where [5] appears, read: read-out: Minimum inhibitory concentration (MIC), E. coli (water).
[6] abbreviates: read-out: Range of MIC, E. coli (Water).
Where [7] appears, read: read-out: Minimum inhibitory concentration (MIC), Staph. (mouse serum).
Setting [8] is: read-out: Minimum inhibitory concentration (MIC), Staph. (water).
Setting [9] is: read-out: Range of MIC, Staph (Mouse Serum).
Setting [10] is: read-out: Range of MIC, Staph (Water).

Procedure for Staph. aureus Smith: Representative examples of compounds of Formula I were tested for the oral efficacy using S. aureus Smith in mice.

With `CCCCCCC(=O)OCOC(=O)N(CCCC)CC(=O)Nc1cc(N(C)C)c2c(c1O)C(=O)C1=C(O)[C@]3(O)C(=O)C(C(N)=O)=C(O)[C@@H](N(C)C)[C@@H]3C[C@@H]1C2` [Example 17, ({[(2-{[(5aR,6aS,7S,10aS)-9-(aminocarbonyl)-4,7-bis(dimethylamino)-1,8,10a,11-tetrahydroxy-10,12-dioxo-5,5a,6,6a,7,10,10a,12-octahydrotetracen-2-yl]amino}-2-oxoethyl)(butyl)amino]carbonyl}oxy)methyl heptanoate], the ED50 in the experiment with Staph. aureus Smith (setting [1]) stood at 59.9 mg/kg; in the experiment with Staph. aureus Smith (setting [2]), 1.07 mg/kg. For the same molecule, the MIC with E. coli (setting [3]) is 0.5 to 2 µg/mL (≈ 0.648 to 2.59 µM); with E. coli (setting [4]) it was 0.5 to 2 µg/mL (≈ 0.648 to 2.59 µM); in the experiment on E. coli (setting [5]), 32 to 64 µg/mL (≈ 41.5 to 82.9 µM); in the experiment with E. coli (setting [6]), 32 to 64 µg/mL (≈ 41.5 to 82.9 µM); in the experiment with Staph. (setting [7]), 1 to 4 µg/mL (≈ 1.3 to 5.18 µM); in the experiment with Staph. (setting [8]) it was 2 to 32 µg/mL (≈ 2.59 to 41.5 µM). The results for the MIC in the experiment with Staph. (setting [9]) and with Staph. (setting [10]) were 1 to 4 µg/mL (≈ 1.3 to 5.18 µM) and 2 to 32 µg/mL (≈ 2.59 to 41.5 µM), respectively.

Consider `CN(C)c1cc(NC(=O)CN(C(=O)OCOC(=O)c2c(F)cccc2F)C(C)(C)C)c(O)c2c1C[C@H]1C[C@H]3[C@H](N(C)C)C(O)=C(C(N)=O)C(=O)[C@@]3(O)C(O)=C1C2=O` [Example 90, ({[(2-{[(5aR,6aS,7S,10aS)-9-(aminocarbonyl)-4,7-bis(dimethylamino)-1,8,10a,11-tetrahydroxy-10,12-dioxo-5,5a,6,6a,7,10,10a,12-octahydrotetracen-2-yl]amino}-2-oxoethyl)(tert-butyl)amino]carbonyl}oxy)methyl 2,6-difluorobenzoate], for which the 50% effective dose (ED50) with Staph. aureus Smith (setting [1]) lay within 16 to 32 mg/kg; with Staph. aureus Smith (setting [2]), 0.5 to 1 mg/kg. Moreover, the MIC is 2 to 4 µg/mL (≈ 2.5 to 5 µM) with E. coli (setting [3]), more than 64 µg/mL in the experiment with E. coli (setting [6]), 0.25 to 2 µg/mL (≈ 0.313 to 2.5 µM) with Staph. (setting [9]) and 1 to 16 µg/mL (≈ 1.25 to 20 µM) in the experiment with Staph. (setting [10]).

As to `CCCCN(CC(=O)Nc1cc(N(C)C)c2c(c1O)C(=O)C1=C(O)[C@]3(O)C(=O)C(C(N)=O)=C(O)[C@@H](N(C)C)[C@@H]3C[C@@H]1C2)C(=O)OCOC(=O)c1ccco1` [Example 30, ({[(2-{[(5aR,6aS,7S,10aS)-9-(aminocarbonyl)-4,7-bis(dimethylamino)-1,8,10a,11-tetrahydroxy-10,12-dioxo-5,5a,6,6a,7,10,10a,12-octahydrotetracen-2-yl]amino}-2-oxoethyl)(butyl)amino]carbonyl}oxy)methyl 2-furate], the values for the 50% effective dose (ED50) in the experiment with Staph. aureus Smith (setting [1]) and in the experiment on Staph. aureus Smith (setting [2]) were 15.1 mg/kg and 0.41 mg/kg, respectively. Also, the MIC in the experiment with E. coli (setting [3]) is 0.5 to 1 µg/mL (≈ 0.663 to 1.33 µM); in the experiment with E. coli (setting [4]) it was 0.5 to 1 µg/mL (≈ 0.663 to 1.33 µM); in the experiment on Staph. (setting [7]) it was 0.25 to 2 µg/mL (≈ 0.332 to 2.65 µM); in the experiment with Staph. (setting [8]) it was 1 to 8 µg/mL (≈ 1.33 to 10.6 µM); in the experiment on Staph. (setting [9]) it was 0.25 to 2 µg/mL (≈ 0.332 to 2.65 µM); in the experiment with Staph. (setting [10]) it was 1 to 8 µg/mL (≈ 1.33 to 10.6 µM).

With `CCCN(CC(=O)Nc1cc(N(C)C)c2c(c1O)C(=O)C1=C(O)[C@]3(O)C(=O)C(C(N)=O)=C(O)[C@@H](N(C)C)[C@@H]3C[C@@H]1C2)C(=O)OCOC(=O)c1ccco1` [Example 31, ({[(2-{[(5aR,6aS,7S,10aS)-9-(aminocarbonyl)-4,7-bis(dimethylamino)-1,8,10a,11-tetrahydroxy-10,12-dioxo-5,5a,6,6a,7,10,10a,12-octahydrotetracen-2-yl]amino}-2-oxoethyl)(propyl)amino]carbonyl}oxy)methyl 2-furate], the figures for the median effective dose (ED50) with Staph. aureus Smith (setting [1]) and with Staph. aureus Smith (setting [2]) were 11.1 mg/kg and 0.31 mg/kg, respectively. Also, the MIC is 0.5 to 1 µg/mL (≈ 0.676 to 1.35 µM) with E. coli (setting [3]); 0.5 to 1 µg/mL (≈ 0.676 to 1.35 µM) in the experiment on E. coli (read-out: Range of MIC, E. coli (mouse serum)); 0.25 to 2 µg/mL (≈ 0.338 to 2.7 µM) in the experiment with Staph. (setting [9]); 0.5 to 4 µg/mL (≈ 0.676 to 5.41 µM) with Staph. (setting [10]); 0.25 to 2 µg/mL (≈ 0.338 to 2.7 µM) with Staph. (read-out: Range of MIC, Staph. (mouse serum)); 0.5 to 4 µg/mL (≈ 0.676 to 5.41 µM) in the experiment with Staph. (read-out: Range of MIC, Staph. (water)).

For `CCCCN(CC(=O)Nc1cc(N(C)C)c2c(c1O)C(=O)C1=C(O)[C@]3(O)C(=O)C(C(N)=O)=C(O)[C@@H](N(C)C)[C@@H]3C[C@@H]1C2)C(=O)OCOC(=O)c1ccsc1` [Example 29, ({[(2-{[(5aR,6aS,7S,10aS)-9-(aminocarbonyl)-4,7-bis(dimethylamino)-1,8,10a,11-tetrahydroxy-10,12-dioxo-5,5a,6,6a,7,10,10a,12-octahydrotetracen-2-yl]amino}-2-oxoethyl)(butyl)amino]carbonyl}oxy)methyl thiophene-3-carboxylate], the 50% effective dose (ED50) in the experiment with Staph. aureus Smith (setting [1]) was found to be 13.7 mg/kg; in the experiment with Staph. aureus Smith (setting [2]), 0.43 mg/kg. The MIC in the experiment on E. coli (setting [3]) is 0.5 to 1 µg/mL (≈ 0.649 to 1.3 µM); in the experiment with E. coli (setting [4]), 0.5 to 1 µg/mL (≈ 0.649 to 1.3 µM); with E. coli (setting [5]) it was more than 64 µg/mL; with E. coli (setting [6]), more than 64 µg/mL; in the experiment on Staph. (setting [7]), 0.25 to 2 µg/mL (≈ 0.325 to 2.6 µM); in the experiment on Staph. (setting [8]), 1 to 4 µg/mL (≈ 1.3 to 5.2 µM). Moreover, the MIC in the experiment on Staph. (setting [9]) was 0.25 to 2 µg/mL (≈ 0.325 to 2.6 µM); with Staph. (setting [10]), 1 to 4 µg/mL (≈ 1.3 to 5.2 µM).

As to `CN(C)c1cc(NC(=O)CN(C(=O)OCOC(=O)c2cccc3ccccc23)C(C)(C)C)c(O)c2c1C[C@H]1C[C@H]3[C@H](N(C)C)C(O)=C(C(N)=O)C(=O)[C@@]3(O)C(O)=C1C2=O` [Example 81, ({[(2-{[(5aR,6aS,7S,10aS)-9-(aminocarbonyl)-4,7-bis(dimethylamino)-1,8,10a,11-tetrahydroxy-10,12-dioxo-5,5a,6,6a,7,10,10a,12-octahydrotetracen-2-yl]amino}-2-oxoethyl)(tert-butyl)amino]carbonyl}oxy)methyl 1-naphthoate], the ED50 is 16 to 32 mg/kg with Staph. aureus Smith (setting [1]) and more than 4 mg/kg in the experiment with Staph. aureus Smith (setting [2]). In addition, the MIC lay in the range of 0.5 to 1 µg/mL (≈ 0.614 to 1.23 µM) in the experiment with E. coli (setting [3]), 8 to 16 µg/mL (≈ 9.83 to 19.7 µM) in the experiment on E. coli (setting [6]), 0.5 to 2 µg/mL (≈ 0.614 to 2.46 µM) in the experiment on Staph. (setting [9]) and 4 to 8 µg/mL (≈ 4.91 to 9.83 µM) in the experiment on Staph. (setting [10]).

Regarding `CN(C)c1cc(NC(=O)CN(C(=O)OCOC(=O)c2ccc3ccccc3c2)C(C)(C)C)c(O)c2c1C[C@H]1C[C@H]3[C@H](N(C)C)C(O)=C(C(N)=O)C(=O)[C@@]3(O)C(O)=C1C2=O` [Example 82, ({[(2-{[(5aR,6aS,7S,10aS)-9-(aminocarbonyl)-4,7-bis(dimethylamino)-1,8,10a,11-tetrahydroxy-10,12-dioxo-5,5a,6,6a,7,10,10a,12-octahydrotetracen-2-yl]amino}-2-oxoethyl)(tert-butyl)amino]carbonyl}oxy)methyl 2-naphthoate], the results for the ED50 in the experiment with Staph. aureus Smith (setting [1]) and in the experiment on Staph. aureus Smith (setting [2]) were 22 mg/kg and 0.52 mg/kg, respectively. Also, the MIC in the experiment on E. coli (setting [6]) was more than 64 µg/mL; with Staph. (setting [9]) it was 4 to 6 µg/mL (≈ 4.91 to 7.37 µM); in the experiment with Staph. (setting [10]) it was 4 to 8 µg/mL (≈ 4.91 to 9.83 µM).

Regarding `CCCCN(CC(=O)Nc1cc(N(C)C)c2c(c1O)C(=O)C1=C(O)[C@]3(O)C(=O)C(C(N)=O)=C(O)[C@@H](N(C)C)C3CC1C2)C(=O)OCc1oc(=O)oc1-c1ccc(OC)cc1` (stereo partly drawn) [Example 113, [5-(4-methoxyphenyl)-2-oxo-1,3-dioxol-4-yl]methyl 2-{[(7S,10aS)-9-(aminocarbonyl)-4,7-bis(dimethylamino)-1,8,10a,11-tetrahydroxy-10,12-dioxo-5,5a,6,6a,7,10,10a,12-octahydrotetracen-2-yl]amino}-2-oxoethyl(butyl)carbamate], the ED50 with Staph. aureus Smith (setting [1]) is 7.01 mg/kg; with Staph. aureus Smith (setting [2]), 0.4 mg/kg. Besides, the MIC in the experiment on E. coli (setting [3]) is 1 to 4 µg/mL (≈ 1.2 to 4.8 µM); in the experiment on E. coli (setting [6]), 2 to 16 µg/mL (≈ 2.4 to 19.2 µM); in the experiment with Staph. (setting [9]), 4 to 16 µg/mL (≈ 4.8 to 19.2 µM); in the experiment with Staph. (setting [10]), 4 to 32 µg/mL (≈ 4.8 to 38.4 µM).

For orientation: ED50 means the dose that gives a 50% effect, or the effect in half of the subjects.
